How the values were obtained:
Format in all cases: cell-based
[1] = molecular target: T1, EGFR exon 20 ASV Ins V769_D770 (Ba/F3 cells) (Homo sapiens, UniProt P00533, INS769ASV); assay: Inhibitor activity on EGFR-dependent cell growth (CellTiter-Glo, 72 h), Ba/F3 EGFR exon 20 ASV Ins; settings: read-out: BaF3 ASV IC50
T1 construct: expressed in transfected cells; host or cells: Ba/F3 (murine pro-B cells), retroviral transduction, puromycin selection, IL3-independent pool
Method in brief: (§1)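 IC50s derive from a sigmoidal dose–response fit of CellTiter-Glo signal. The signal was normalised between […]-treated cells and cell-free medium. Ba/F3 mutant-EGFR cells, seeded at 400–800/well depending on the line, had 72 h of exposure to a 10-point, 3-fold compound series.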

[2] = molecular target: T2, EGFR exon 20 NPG Ins D770_N771 (Ba/F3 cells) (Homo sapiens, UniProt P00533, INS770NPG); assay: Inhibitor activity on EGFR-dependent cell growth (CellTiter-Glo, 72 h), Ba/F3 EGFR exon 20 NPG Ins; settings: read-out: BaF3 NPG IC50
T2 construct: expressed in transfected cells; host or cells: Ba/F3 (murine pro-B cells), retroviral transduction, puromycin selection, IL3-independent pool
T2 sequence (P00533 with tags, fused parts or gaps INS770NPG): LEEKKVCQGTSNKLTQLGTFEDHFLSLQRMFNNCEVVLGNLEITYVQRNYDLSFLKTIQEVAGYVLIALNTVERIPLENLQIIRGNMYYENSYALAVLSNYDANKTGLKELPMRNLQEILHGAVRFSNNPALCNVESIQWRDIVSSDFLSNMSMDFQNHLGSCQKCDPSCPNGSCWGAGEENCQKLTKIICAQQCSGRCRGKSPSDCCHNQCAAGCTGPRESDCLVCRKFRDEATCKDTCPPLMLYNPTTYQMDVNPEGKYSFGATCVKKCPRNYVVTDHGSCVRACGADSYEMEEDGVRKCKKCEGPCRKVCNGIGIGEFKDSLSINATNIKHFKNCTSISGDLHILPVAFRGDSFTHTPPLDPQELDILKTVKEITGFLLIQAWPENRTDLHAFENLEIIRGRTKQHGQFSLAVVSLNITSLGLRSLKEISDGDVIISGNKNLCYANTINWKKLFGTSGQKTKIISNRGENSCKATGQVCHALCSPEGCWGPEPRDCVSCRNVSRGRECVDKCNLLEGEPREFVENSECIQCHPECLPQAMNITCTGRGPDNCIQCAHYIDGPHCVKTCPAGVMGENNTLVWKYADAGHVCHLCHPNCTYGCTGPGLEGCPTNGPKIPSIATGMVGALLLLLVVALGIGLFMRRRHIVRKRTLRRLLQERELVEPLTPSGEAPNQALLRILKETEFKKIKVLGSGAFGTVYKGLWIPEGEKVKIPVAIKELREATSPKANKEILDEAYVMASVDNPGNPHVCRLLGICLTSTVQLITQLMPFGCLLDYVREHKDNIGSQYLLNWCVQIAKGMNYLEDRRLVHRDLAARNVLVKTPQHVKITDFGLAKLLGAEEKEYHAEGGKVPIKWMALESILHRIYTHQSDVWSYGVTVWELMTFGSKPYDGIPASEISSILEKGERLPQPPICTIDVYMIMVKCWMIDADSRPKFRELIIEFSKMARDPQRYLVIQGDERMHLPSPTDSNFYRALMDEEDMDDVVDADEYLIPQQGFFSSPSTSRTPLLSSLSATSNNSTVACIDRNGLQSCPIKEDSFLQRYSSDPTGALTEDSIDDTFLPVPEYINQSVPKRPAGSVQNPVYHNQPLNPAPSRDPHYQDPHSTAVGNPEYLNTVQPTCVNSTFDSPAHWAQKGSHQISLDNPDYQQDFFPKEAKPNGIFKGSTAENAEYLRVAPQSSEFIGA
Method in brief: as §1

[3] = molecular target: T2, EGFR exon 20 NPG Ins D770_N771 (Ba/F3 cells); assay: Inhibitor activity on EGFR phosphorylation (pEGFR AlphaLISA, 2 h), Ba/F3 EGFR exon 20 NPG Ins
Method in brief: (§2)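 Steps: seed cells (Ba/F3 50K, CUTO14 12.5K per well); add 3-fold, 10-point compound dilution; incubate 2 h; lyse 1 hr; add acceptor then donor beads (1.5 hrs, RT, dark); read AlphaLISA signal for IC50.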

[4] = molecular target: T3, EGFR exon 20 SVD Ins D770_N771 (Ba/F3 cells) (Homo sapiens, UniProt P00533, INS770SVD); assay: Inhibitor activity on EGFR phosphorylation (pEGFR AlphaLISA, 2 h), Ba/F3 EGFR exon 20 SVD Ins
T3 construct: expressed in transfected cells; host or cells: Ba/F3 (murine pro-B cells), retroviral transduction, puromycin selection, IL3-independent pool
Source text: Example B. Inhibitor Activity on EGFR phosphorylation (pEGFR)
EGFR mutant Ba/F3 cells were generated by transduction with retrovirus containing vectors expressing EGFR L858R, EGFR exon 19del, EGFR L858R/C797S, EGFR exon 20 NPG Ins D770_N771, EGFR exon 20 ASV Ins V769_D770, or EGFR exon 20 SVD Ins D770_N771 genes along with a puromycin selection marker. Transduced cells are selected with puromycin for 7 days and are then be transferred into culture media without Interleukin 3 (IL3). Surviving cells are confirmed to express EGFR by Western blot and maintained as a pool. CUTO14 cells were obtained from Dr. Robert C. Doebele at the University of Colorado. The IC50 date are included in Table 6 and Table 7.
1.1 Cells are harvested from flask into cell culture medium and the cell number counted.
1.2 Cells are diluted with culture medium to the desired density and 40 μL of cell suspension is added into each well of 384-well cell culture plate and the seeding density is 50K cells/well (Ba/F3) or 12.5K cells/well (CUTO14).
2 Compound Preparation and Treatment
2.1 Test compounds are dissolved to 10 mM in a DMSO stock solution. 45 μL of stock solution is transferred to a 384 polypropylene plate (pp-plate). Perform 3-fold, 10-point dilution via transferring 15 μL compound into 30 μL DMSO using a TECAN (EVO200) liquid handler.
2.2 Spin plates at room temperature at 1,000 RPM for 1 minute.
2.3 Transfer 5 nL of diluted compound from compound source plate into the cell plate.
2.4 After compound treatment for 2 hours, perform pEGFR detection by AlphaLISA for compound treatment plates as described in “Detection” section.
3 Detection by pEGFR AlphaLISA (Perkin-Elmer)
3.1 Plates are removed from incubators and equilibrated at room temperature for 10 minutes, and media was removed
3.2 10 μL of lysis buffer is added and plates shaken at 600 rpm for 1 hr.
3.3 Prepare acceptor mix just before use and dispense 5 μL of acceptor mix to all the wells. Shake 350 rpm for Ihr in the dark
3.4 Prepare donor mix under low light conditions prior to use. Dispense 5 μL of donor mix to all the wells. Mix well on the shaker, seal and wrap in aluminum foil and incubate 1.5 hrs at room temperature in the dark
3.5 Transfer 18.5 μL mixture to OptiPlate 384, and read using an Envision. The IC50 date were included in Table 6 and Table 7.

[5] = molecular target: T4, EGFR exon 20 FQEA Ins A763_V764 (Ba/F3 cells) (Homo sapiens, UniProt P00533, INS763FQEA); assay: Inhibitor activity on EGFR-dependent cell growth (CellTiter-Glo, 72 h), Ba/F3 EGFR exon 20 FQEA Ins; settings: read-out: BaF3 FQEA IC50
T4 construct: expressed in transfected cells; host or cells: Ba/F3 (murine pro-B cells), retroviral transduction, puromycin selection, IL3-independent pool
Method in brief: (§3)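 For each mutant line, growth depends on EGFR signalling in the absence of IL3. Density per well: 400 for L858R, 600 for the C797S double mutant, 800 for exon 19del and FQEA. Ten threefold dilutions were applied for 72 h. %Inhibition = 100×(DMSO − sample)/(DMSO − medium blank).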

[6] = molecular target: T1, EGFR exon 20 ASV Ins V769_D770 (Ba/F3 cells); assay: Inhibitor activity on EGFR phosphorylation (pEGFR AlphaLISA, 2 h), Ba/F3 EGFR exon 20 ASV Ins; settings: EGFR phosphorylation, AlphaLISA, 2 hours; read-out: ASV IC50 (pEGFR)
Method in brief: as §2

[7] = molecular target: T3, EGFR exon 20 SVD Ins D770_N771 (Ba/F3 cells); assay: Inhibitor activity on EGFR-dependent cell growth (CellTiter-Glo, 72 h), Ba/F3 EGFR exon 20 SVD Ins; settings: read-out: BaF3 SVD IC50
Method in brief: as §1

[8] = molecular target: EGFR (CUTO14 cells) (Homo sapiens, UniProt P00533); assay: Inhibitor activity on EGFR phosphorylation (pEGFR AlphaLISA, 2 h), CUTO14 cells
Method in brief: as §2

[9] = molecular target: T5, EGFR L858R/C797S (Ba/F3 cells) (Homo sapiens, UniProt P00533, C797S/L858R); assay: Inhibitor activity on EGFR phosphorylation (pEGFR AlphaLISA, 2 h), Ba/F3 EGFR L858R/C797S
T5 construct: expressed in transfected cells; host or cells: Ba/F3 (murine pro-B cells), retroviral transduction, puromycin selection, IL3-independent pool
Method in brief: as §2

[10] = molecular target: T6, EGFR L858R (Ba/F3 cells) (Homo sapiens, UniProt P00533, L858R); assay: Inhibitor activity on EGFR phosphorylation (pEGFR AlphaLISA, 2 h), Ba/F3 EGFR L858R
T6 construct: expressed in transfected cells; host or cells: Ba/F3 (murine pro-B cells), retroviral transduction, puromycin selection, IL3-independent pool
Method in brief: as §2

[11] = molecular target: T5, EGFR L858R/C797S (Ba/F3 cells); assay: Inhibitor activity on EGFR-dependent cell growth (CellTiter-Glo, 72 h), Ba/F3 EGFR L858R/C797S; settings: read-out: BaF3 L858R/C797S IC50
Method in brief: as §3

[12] = molecular target: T7, EGFR exon 19del (Ba/F3 cells) (Homo sapiens, UniProt P00533); assay: Inhibitor activity on EGFR-dependent cell growth (CellTiter-Glo, 72 h), Ba/F3 EGFR exon 19del; settings: Ba/F3 EGFR exon 19del cell growth, read-out: BaF3 Del19 IC50
T7 sequence (P00533 with tags, fused parts or gaps DEL746-750): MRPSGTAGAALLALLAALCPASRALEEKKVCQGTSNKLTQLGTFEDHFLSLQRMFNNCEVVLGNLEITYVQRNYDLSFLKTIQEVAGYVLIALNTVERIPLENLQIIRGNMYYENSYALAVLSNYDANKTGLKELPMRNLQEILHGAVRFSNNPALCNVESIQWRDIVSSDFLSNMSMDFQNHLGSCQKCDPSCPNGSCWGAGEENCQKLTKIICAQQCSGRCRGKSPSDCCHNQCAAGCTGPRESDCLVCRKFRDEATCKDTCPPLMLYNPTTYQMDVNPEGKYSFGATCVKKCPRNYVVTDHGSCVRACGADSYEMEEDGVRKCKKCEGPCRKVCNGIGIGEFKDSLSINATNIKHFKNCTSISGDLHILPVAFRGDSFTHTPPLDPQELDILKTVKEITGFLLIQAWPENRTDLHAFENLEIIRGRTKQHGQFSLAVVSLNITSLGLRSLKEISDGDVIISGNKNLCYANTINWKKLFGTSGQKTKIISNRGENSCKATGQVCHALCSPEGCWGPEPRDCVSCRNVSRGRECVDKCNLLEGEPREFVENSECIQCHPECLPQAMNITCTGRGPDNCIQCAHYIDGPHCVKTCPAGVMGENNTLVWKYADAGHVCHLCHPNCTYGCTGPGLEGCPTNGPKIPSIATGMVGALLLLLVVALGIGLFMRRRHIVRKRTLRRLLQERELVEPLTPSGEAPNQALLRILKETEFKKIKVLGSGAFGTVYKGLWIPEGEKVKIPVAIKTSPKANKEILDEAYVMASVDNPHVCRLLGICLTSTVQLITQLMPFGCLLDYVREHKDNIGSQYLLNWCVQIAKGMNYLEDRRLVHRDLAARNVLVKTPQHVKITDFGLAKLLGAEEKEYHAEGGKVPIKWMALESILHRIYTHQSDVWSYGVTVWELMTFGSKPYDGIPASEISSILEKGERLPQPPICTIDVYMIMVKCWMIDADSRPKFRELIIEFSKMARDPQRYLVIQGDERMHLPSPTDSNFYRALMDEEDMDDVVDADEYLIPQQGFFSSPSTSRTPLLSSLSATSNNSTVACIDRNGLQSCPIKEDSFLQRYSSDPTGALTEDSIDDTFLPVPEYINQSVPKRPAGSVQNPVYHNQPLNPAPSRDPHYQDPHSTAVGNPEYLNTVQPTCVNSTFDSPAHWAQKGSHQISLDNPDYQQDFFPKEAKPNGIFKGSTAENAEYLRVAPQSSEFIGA
Method in brief: as §3

[13] = molecular target: T8, EGFR WT (Ba/F3 cells) (Homo sapiens, UniProt P00533); assay: Inhibitor activity on EGFR-dependent cell growth (CellTiter-Glo, 72 h), Ba/F3 EGFR WT; settings: read-out: BaF3 WT IC50
T8 construct: expressed in transfected cells; host or cells: Ba/F3 (murine pro-B cells), retroviral transduction, puromycin selection, maintained with EGF
T8 sequence (P00533 25-1210): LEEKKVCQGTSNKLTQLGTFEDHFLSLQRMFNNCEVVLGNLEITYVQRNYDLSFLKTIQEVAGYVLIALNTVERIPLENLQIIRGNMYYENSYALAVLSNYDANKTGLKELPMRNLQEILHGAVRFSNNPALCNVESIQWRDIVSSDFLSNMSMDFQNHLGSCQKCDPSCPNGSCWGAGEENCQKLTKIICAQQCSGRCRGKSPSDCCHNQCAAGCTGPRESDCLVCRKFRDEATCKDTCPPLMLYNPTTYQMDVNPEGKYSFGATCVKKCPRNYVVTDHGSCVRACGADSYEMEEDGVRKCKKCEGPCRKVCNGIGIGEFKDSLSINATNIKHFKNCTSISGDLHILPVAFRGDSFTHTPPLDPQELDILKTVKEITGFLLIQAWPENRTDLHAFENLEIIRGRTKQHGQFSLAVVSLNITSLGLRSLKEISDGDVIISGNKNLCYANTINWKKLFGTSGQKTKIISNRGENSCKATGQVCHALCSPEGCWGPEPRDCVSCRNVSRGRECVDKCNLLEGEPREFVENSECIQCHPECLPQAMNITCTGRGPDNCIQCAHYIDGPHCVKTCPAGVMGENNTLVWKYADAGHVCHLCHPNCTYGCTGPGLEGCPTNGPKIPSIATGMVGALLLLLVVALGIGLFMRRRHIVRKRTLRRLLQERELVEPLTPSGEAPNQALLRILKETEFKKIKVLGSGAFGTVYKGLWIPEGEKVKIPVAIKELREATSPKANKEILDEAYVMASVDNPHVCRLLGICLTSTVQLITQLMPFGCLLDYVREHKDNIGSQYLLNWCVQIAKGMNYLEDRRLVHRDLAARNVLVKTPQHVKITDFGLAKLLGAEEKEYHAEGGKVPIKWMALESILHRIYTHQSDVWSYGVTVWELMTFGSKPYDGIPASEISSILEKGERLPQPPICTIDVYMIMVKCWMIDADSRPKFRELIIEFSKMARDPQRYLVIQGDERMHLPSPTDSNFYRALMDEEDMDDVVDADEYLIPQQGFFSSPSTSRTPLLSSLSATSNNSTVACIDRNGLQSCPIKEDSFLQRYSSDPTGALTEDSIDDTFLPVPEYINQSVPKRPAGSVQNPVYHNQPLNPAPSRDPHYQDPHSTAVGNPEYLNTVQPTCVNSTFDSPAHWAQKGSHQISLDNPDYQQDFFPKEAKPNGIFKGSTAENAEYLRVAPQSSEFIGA
Method in brief: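 This growth assay used Ba/F3 cells that depend on wild-type EGFR and are kept in EGF without IL3. Compounds were made up as 10 mM DMSO stocks and diluted 3-fold over 10 points. 120 nL went onto 600 cells/well. After 72 hours, 40 μL CellTiter-Glo was added and luminescence read on EnVision after 30 min.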

[14] = molecular target: T6, EGFR L858R (Ba/F3 cells); assay: Inhibitor activity on EGFR-dependent cell growth (CellTiter-Glo, 72 h), Ba/F3 EGFR L858R; settings: read-out: BaF3 L858R IC50
Method in brief: as §3

[15] = molecular target: T7, EGFR exon 19del (Ba/F3 cells); assay: Inhibitor activity on EGFR phosphorylation (pEGFR AlphaLISA, 2 h), Ba/F3 EGFR exon 19del; settings: read-out: Del19 IC50 (pEGFR)
Method in brief: as §2

T1 sequence (P00533 with tags, fused parts or gaps INS769ASV): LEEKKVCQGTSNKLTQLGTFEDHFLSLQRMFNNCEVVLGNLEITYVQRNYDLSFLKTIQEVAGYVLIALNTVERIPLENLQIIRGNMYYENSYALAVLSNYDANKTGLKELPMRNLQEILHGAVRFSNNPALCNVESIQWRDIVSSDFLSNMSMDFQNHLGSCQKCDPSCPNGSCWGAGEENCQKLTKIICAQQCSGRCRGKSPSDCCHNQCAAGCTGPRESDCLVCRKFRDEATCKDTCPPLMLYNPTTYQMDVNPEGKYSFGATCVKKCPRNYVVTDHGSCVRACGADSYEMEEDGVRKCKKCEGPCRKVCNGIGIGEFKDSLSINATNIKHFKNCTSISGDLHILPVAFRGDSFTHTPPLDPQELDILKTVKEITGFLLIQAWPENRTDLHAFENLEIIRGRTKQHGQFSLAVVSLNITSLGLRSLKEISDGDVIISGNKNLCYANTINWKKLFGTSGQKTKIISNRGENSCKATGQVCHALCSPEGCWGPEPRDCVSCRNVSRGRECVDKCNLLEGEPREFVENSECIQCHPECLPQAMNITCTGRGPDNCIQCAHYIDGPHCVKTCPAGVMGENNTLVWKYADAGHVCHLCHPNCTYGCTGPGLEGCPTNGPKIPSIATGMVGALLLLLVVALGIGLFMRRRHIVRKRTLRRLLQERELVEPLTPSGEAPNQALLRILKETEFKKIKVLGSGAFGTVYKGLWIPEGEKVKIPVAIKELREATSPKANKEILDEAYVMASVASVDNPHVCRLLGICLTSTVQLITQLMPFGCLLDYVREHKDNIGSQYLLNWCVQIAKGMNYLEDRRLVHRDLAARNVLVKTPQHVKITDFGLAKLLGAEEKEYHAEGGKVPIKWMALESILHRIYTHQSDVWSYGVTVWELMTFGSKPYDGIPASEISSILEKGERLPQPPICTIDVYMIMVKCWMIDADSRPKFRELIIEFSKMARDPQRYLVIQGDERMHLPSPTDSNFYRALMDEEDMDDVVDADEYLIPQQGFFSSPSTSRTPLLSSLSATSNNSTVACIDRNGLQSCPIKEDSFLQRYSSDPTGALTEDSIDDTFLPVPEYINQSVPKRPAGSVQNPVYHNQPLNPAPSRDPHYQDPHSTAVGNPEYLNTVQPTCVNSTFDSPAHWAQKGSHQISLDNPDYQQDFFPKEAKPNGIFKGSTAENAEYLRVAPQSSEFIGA

SMILES | IC50 [1] [nM] | IC50 [2] [nM] | IC50 [3] [nM] | IC50 [4] [nM] | IC50 [5] [nM] | IC50 [6] [nM] | IC50 [7] [nM] | IC50 [8] [nM] | IC50 [9] [nM] | IC50 [10] [nM] | IC50 [11] [nM] | IC50 [12] [nM] | IC50 [13] [nM] | IC50 [14] [nM] | IC50 [15] [nM]
COc1c(Cl)cccc1Nc1c(-c2ccnc(Nc3cnn(CC(F)F)c3)n2)[nH]c2c1C(=O)NCC2 [compound 514, 3-[(3-chloro-2-methoxyphenyl)amino]-2-(2-{[1-(2,2-difluoroethyl)pyrazol-4-yl]amino}pyrimidin-4-yl)-1H,5H,6H,7H-pyrrolo[3,2-c]pyridin-4-one] | < 100 | 100 to 1000 | < 100 | < 100 | < 100 | < 100 | < 100 | 100 to 1000 | – | – | – | – | < 100 | – | –
COc1c(F)cccc1Nc1c(-c2ccnc(C)n2)[nH]c2c1C(=O)NCC2C[C@H]1COCCO1 (single isomer, unassigned) [Compound 606] | < 100 | < 100 | – | – | < 100 | – | < 100 | < 100 | < 100 | < 100 | < 100 | < 100 | 100 to 1000 | < 100 | < 100
COc1c(Cl)cccc1Nc1c(-c2ccnc(Nc3cnnn3C)n2)[nH]c2c1C(=O)NCC2 [compound 512, 3-[(3-chloro-2-methoxyphenyl)amino]-2-{2-[(3-methyl-1,2,3-triazol-4-yl)amino]pyrimidin-4-yl}-1H,5H,6H,7H-pyrrolo[3,2-c]pyridin-4-one] | < 100 | < 100 | < 100 | < 100 | < 100 | < 100 | < 100 | < 100 | – | – | – | – | 100 to 1000 | – | –
COc1c(F)cccc1Nc1c(-c2ccnc(C)n2)[nH]c2c1C(=O)NCC2C[C@@H]1COCCO1 (single isomer, unassigned) [Compound 604] | < 100 | < 100 | – | – | < 100 | – | < 100 | < 100 | < 100 | < 100 | < 100 | < 100 | 100 to 1000 | < 100 | < 100
COc1ncc2nccc(-c3[nH]c4c(c3Nc3cccc(Cl)c3OC)C(=O)NCC4)c2n1 [compound 408] | < 100 | < 100 | < 100 | < 100 | < 100 | < 100 | < 100 | < 100 | – | – | – | – | < 100 | – | –
COCC[C@@H]1CNC(=O)c2c1[nH]c(-c1ccnc(N)n1)c2Nc1cccc(Cl)c1OC [Compound 726, (7R)-2-(2-aminopyrimidin-4-yl)-3-[(3-chloro-2-methoxyphenyl)amino]-7-(2-methoxyethyl)-1H,5H,6H,7H-pyrrolo[3,2-c]pyridin-4 one] | < 100 | < 100 | < 100 | < 100 | < 100 | < 100 | < 100 | < 100 | – | – | – | – | < 100 | – | –

Other lines, results leading:

IC50 [1] [nM] | IC50 [2] [nM] | IC50 [3] [nM] | IC50 [4] [nM] | IC50 [5] [nM] | IC50 [6] [nM] | IC50 [7] [nM] | IC50 [8] [nM] | IC50 [9] [nM] | IC50 [10] [nM] | IC50 [11] [nM] | IC50 [12] [nM] | IC50 [13] [nM] | IC50 [14] [nM] | IC50 [15] [nM] | SMILES
< 100 | < 100 | < 100 | < 100 | < 100 | < 100 | < 100 | < 100 | – | – | – | – | – | – | – | C=CC(=O)N1CCC2(CC1)CNC(=O)c1c2[nH]c(-c2ccnc3ccc(OC)nc23)c1Nc1cccc(F)c1OC [Compound 160, 1-acryloyl-3′-((3-fluoro-2-methoxyphenyl)amino)-2′-(6-methoxy-1,5-naphthyridin-4-yl)-5′,6′-dihydrospiro[piperidine-4,7′-pyrrolo[3,2-c]pyridin]-4′(1′H)-one]
< 100 | < 100 | – | – | < 100 | – | < 100 | < 100 | < 100 | < 100 | < 100 | < 100 | 100 to 1000 | < 100 | < 100 | COc1c(F)cccc1Nc1c(-c2ccncn2)[nH]c2c1C(=O)NC[C@H]2C[C@@H]1COCCO1 [Compound 569, (7R)-7-[(2R)-1,4-dioxan-2-ylmethyl]-3-[(3-fluoro-2-methoxyphenyl)amino]-2-(pyrimidin-4-yl)-1H,5H,6H,7H-pyrrolo[3,2-c]pyridin-4-one]
– | < 100 | < 100 | < 100 | 100 to 1000 | < 100 | – | < 100 | – | – | – | – | 100 to 1000 | – | – | COc1c(Cl)cccc1Nc1c(-c2ccnc(N)n2)[nH]c2c1C(=O)NCC2 [Compound 148, 2-(2-aminopyrimidin-4-yl)-3-((3-chloro-2-methoxyphenyl)amino)-1,5,6,7-tetrahydro-4H-pyrrolo[3,2-c]pyridin-4-one]
< 100 | < 100 | < 100 | < 100 | – | < 100 | < 100 | < 100 | – | – | – | – | 100 to 1000 | – | – | COc1c(Cl)cccc1Nc1c(-c2ccnc3c(N)noc23)[nH]c2c1C(=O)NCC2 [compound 524, 2-{3-amino-[1,2]oxazolo[4,5-b]pyridin-7-yl}-3-[(3-chloro-2-methoxyphenyl)amino]-1H,5H,6H,7H-pyrrolo[3,2-c]pyridin-4-one]

— patent US20240101576A1, “HETEROCYCLIC INHIBITORS OF EGFR AND/OR HER2, FOR USE IN THE TREATMENT OF CANCER” (Scorpion Therapeutics, Inc., priority 2020, published 2024)
